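Where inhibition never reached the appropriate level, the endpoint shown equals the highest concentration tested. Otherwise, values were interpolated linearly from a five-concentration, 48-hour dose response in 96-well plates. GI50: concentration for 50% inhibition of growth. Definition used: TGI = concentration required for complete inhibition of growth.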 A value given as a limit tells only on which side of the number the result lay.

Test systems include SNB-19 CNS; IGROV1 ovarian; HL-60(TB) leukemia; HT29 colon; SF-268 CNS; A498 renal; MDA-MB-435; HS 578T breast; MDA-MB-231 breast; BT-549 breast.
Common to all, as to experiment: NCI tumour cell line growth inhibition, 48 h

In the case of `COc1cccc(C(=O)N2CCc3ccccc32)c1OC`, the TGI is greater than 100 µM with SNB-19 CNS, greater than 100 µM in the experiment with IGROV1 ovarian, 91.1 µM with HL-60(TB) leukemia and greater than 100 µM in the experiment with HT29 colon.
Take `COc1c(C(=O)O)oc2c(OC)cccc12`: the TGI in the experiment on SF-268 CNS, with A498 renal, in the experiment with SNB-19 CNS, with IGROV1 ovarian, in the experiment with HL-60(TB) leukemia and in the experiment on HT29 colon was greater than 100 µM in each case.
Regarding `COc1ccc2c(c1OC)C1=C(C2=O)c2cc3c(cc2CCN1)OCO3`, the TGI in the experiment with SF-268 CNS is greater than 100 µM; in the experiment with A498 renal, greater than 100 µM; in the experiment on IGROV1 ovarian, greater than 100 µM; with HL-60(TB) leukemia, 53.9 µM; in the experiment with HT29 colon, 43.3 µM.
`Cc1c(C(=O)c2ccccc2C(=O)O)c2ccccc2n1C`: the TGI in the experiment with A498 renal, in the experiment on IGROV1 ovarian, with HL-60(TB) leukemia and with HT29 colon was greater than 100 µM throughout.
Turning to `CC1(C)OC(=O)C=C([O-])O1.CC1(C)OC(=O)C=C([O-])O1.O=S(=O)([O-])c1ccc([O-])c2ncccc12.O=S(=O)([O-])c1ccc([O-])c2ncccc12.[Ti+4]`, the GI50 in the experiment with SF-268 CNS was 52 µM; in the experiment on A498 renal, greater than 100 µM; with SNB-19 CNS, greater than 100 µM; with IGROV1 ovarian, greater than 100 µM; in the experiment with HL-60(TB) leukemia, 34.1 µM; with HT29 colon, greater than 100 µM. Besides, the TGI in the experiment with SF-268 CNS, with A498 renal, with SNB-19 CNS, in the experiment on IGROV1 ovarian, in the experiment with HL-60(TB) leukemia and in the experiment on HT29 colon was greater than 100 µM each time.
Turning to `CN1c2ccccc2N(C)C2C1N(C)c1ccccc1N2C` (stereo not given), the TGI in the experiment on SF-268 CNS was 46.6 µM; in the experiment with A498 renal, 84.1 µM; in the experiment with SNB-19 CNS, 80.2 µM; in the experiment with IGROV1 ovarian, greater than 100 µM; in the experiment with HL-60(TB) leukemia, 7 µM; in the experiment with HT29 colon, greater than 100 µM.
For `N=c1nnc(=O)c2c(s1)-n1ncc(C(=O)O)c1NN2`, the TGI in the experiment with SF-268 CNS, in the experiment with SNB-19 CNS, in the experiment on IGROV1 ovarian, in the experiment on HL-60(TB) leukemia and in the experiment with HT29 colon was greater than 100 µM throughout.
In the case of `CO/C1=C\C(C)=C\C(C)C(O)C(C)C/C(C)=C/C=C/C(OC)C(C(C)C(O)C(C)C2(O)CC(O)C(C)C(C(C)C)O2)OC1=O` (stereo not given), the TGI in the experiment on SF-268 CNS came to 19.5 µM; in the experiment on MDA-MB-435 it was 0.0042 µM; with SNB-19 CNS it was 24.9 µM; with IGROV1 ovarian it was 23.7 µM; in the experiment with HL-60(TB) leukemia, 0.0136 µM.
In the case of `CC(=O)O[C@H]1CC[C@@]2(C)C(=CC[C@H]3C4=CC=C(C(C)=O)[C@@]4(C)CCC32)C1` (stereo not given in full), the TGI in the experiment with SF-268 CNS, with A498 renal, in the experiment with SNB-19 CNS, in the experiment on IGROV1 ovarian, in the experiment with HL-60(TB) leukemia and in the experiment on HT29 colon was greater than 100 µM each time.
Regarding `CCNC(=O)C#CC(=O)NCC`, the GI50 is greater than 10 µM in the experiment on SF-268 CNS; greater than 100 µM in the experiment with A498 renal; greater than 10 µM with SNB-19 CNS; greater than 10 µM with HL-60(TB) leukemia; greater than 10 µM in the experiment with HT29 colon. Moreover, the TGI with SF-268 CNS was greater than 100 µM; with A498 renal it was greater than 100 µM; with SNB-19 CNS, greater than 100 µM; in the experiment on IGROV1 ovarian, greater than 100 µM; in the experiment on HL-60(TB) leukemia it was greater than 53.9 µM; in the experiment with HT29 colon, greater than 100 µM.
With `CN(CN1C(=O)C2Cc3ccccc3CN2C1=O)c1ccccn1` (stereo not given), the TGI in the experiment with SF-268 CNS, in the experiment with A498 renal, with SNB-19 CNS, in the experiment with IGROV1 ovarian and with HL-60(TB) leukemia was greater than 100 µM throughout.
Turning to `CN(C)C(N)=NC#N`, the TGI in the experiment on SF-268 CNS, in the experiment on A498 renal, in the experiment on SNB-19 CNS, with IGROV1 ovarian, in the experiment with HL-60(TB) leukemia and in the experiment with HT29 colon was greater than 100 µM throughout.
With `COc1ccc(C(N)=O)cc1N=NN(C)C`, the TGI with SF-268 CNS, in the experiment with A498 renal, in the experiment with SNB-19 CNS, in the experiment on IGROV1 ovarian, with HL-60(TB) leukemia and in the experiment on HT29 colon was greater than 100 µM each time.
For the compound `O=c1[nH]c(=O)n(C2OC(CO)C(O)C2O)c2c1CCCC2` (stereo not given), the TGI in the experiment on SF-268 CNS, in the experiment with MDA-MB-435, with A498 renal, in the experiment with SNB-19 CNS, with IGROV1 ovarian and in the experiment with HS 578T breast was greater than 100 µM throughout. Also, the TGI in the experiment on HL-60(TB) leukemia, in the experiment with MDA-MB-231 breast and in the experiment with HT29 colon was greater than 100 µM each time.
As for `Cc1c(C(=O)NCCO)[n+](=O)c2cc(Cl)ccc2n1[O-]`, the TGI in the experiment with SF-268 CNS, in the experiment on A498 renal, in the experiment with SNB-19 CNS, in the experiment on IGROV1 ovarian, in the experiment with HL-60(TB) leukemia and with HT29 colon was greater than 100 µM throughout.
Take `COC1OC(CO)C(O)C(O)C1Br` (stereo not given): the TGI with SF-268 CNS, in the experiment with A498 renal, in the experiment with SNB-19 CNS, with IGROV1 ovarian, with HL-60(TB) leukemia and in the experiment with HT29 colon was greater than 100 µM each time.
In the case of `COc1cccc(NC(=O)CC(=O)N2N=C(N(CCC#N)c3ccccc3C)CC2c2ccccc2)c1` (stereo not given), the TGI with SF-268 CNS, in the experiment on SNB-19 CNS, in the experiment with IGROV1 ovarian, in the experiment with HL-60(TB) leukemia and in the experiment on HT29 colon was greater than 100 µM in each case.
Consider `Cc1nc2c(n1C(C)(C)C)C(=O)c1ccccc1C2=O`, for which the TGI with SF-268 CNS, in the experiment on SNB-19 CNS, with IGROV1 ovarian, with HL-60(TB) leukemia and in the experiment on HT29 colon was greater than 100 µM each time.
On to `Cn1ncc2c(N)nc(N3CCCCC3)nc21`, for which the GI50 was 29.6 µM with SF-268 CNS; 24.1 µM in the experiment on MDA-MB-435; 18.5 µM in the experiment on A498 renal; 22.5 µM in the experiment on SNB-19 CNS; 31.9 µM with BT-549 breast; 33.9 µM in the experiment on IGROV1 ovarian. Moreover, the GI50 was 28.3 µM in the experiment with HS 578T breast, 36 µM with HL-60(TB) leukemia and 22.5 µM in the experiment on HT29 colon. The TGI with SF-268 CNS is 69.2 µM; with MDA-MB-435 it was 81.4 µM; in the experiment with A498 renal, 42.9 µM; in the experiment on SNB-19 CNS, greater than 100 µM; with BT-549 breast it was greater than 100 µM; in the experiment with IGROV1 ovarian it was greater than 100 µM. Further, the TGI with HS 578T breast is 76.3 µM; in the experiment with HL-60(TB) leukemia, greater than 100 µM; with HT29 colon, 68.6 µM.

Values taken from PubChem BioAssay (NCI).
